Results on twelve compounds are retold here after PubChem BioAssay (NCI).

Test in all cases: NCI anticancer screen, dose series, 48 h
The subject of experiment [1] is CCRF-CEM leukemia.
Experiment [2] deals with EKVX NSCLC.
Experiment [3] has as its system IGROV1 ovarian.
Experiment [4] has as its system K-562 leukemia.
The test system of experiment [5] is KM12 colon.
Experiment [6] deals with MDA-MB-231 breast.
In experiment [7] the test system is MOLT-4 leukemia.
The subject of experiment [8] is NCI-H522 lung.
The subject of experiment [9] is OVCAR-4 ovarian.
The test system of experiment [10] is SF-268 CNS.
The subject of experiment [11] is SF-295 CNS.
Experiment [12] deals with SW-620 colon.
Experiment [13] concerns OVCAR-5 ovarian.

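Grown in 96-well plates, cells were treated for 48 hours with each compound at five concentrations. Insufficient inhibition: endpoint recorded as highest concentration tested. Abbreviation: GI50, concentration required for 50% inhibition of growth. TGI: concentration producing complete growth inhibition.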

Turning to `CC(=O)Nc1ccc(-c2nc3ccccc3s2)cc1I`, the TGI was more than 100 µM in [1]; 80.1 µM in experiment [2]; 20 µM in [3]; more than 100 µM in experiment [4]; more than 100 µM in [5]; more than 65.1 µM in experiment [6]. Further, the TGI in experiment [7] is more than 100 µM; in experiment [8], more than 100 µM; in experiment [9], more than 100 µM; in experiment [10], 97.4 µM; in experiment [11], more than 100 µM; in experiment [12], more than 100 µM.
For the compound `CC(NC(=O)C(N)CC(=O)O)NC(=O)C1CCC1` (configuration not stated), the TGI in experiment [1], in experiment [2], in experiment [4], in experiment [5], in [6] and in experiment [7] was more than 100 µM throughout. For the same compound, the TGI in experiment [8], in experiment [9], in experiment [13], in [10] and in experiment [12] was more than 100 µM throughout.
On to `O=C(c1ccccc1)c1ccc(-n2c3ccccc3c3ccc4c(c32)C(=O)C=CC4=O)cc1`, for which the TGI in experiment [2] was 26.3 µM; in experiment [3], 37.5 µM; in experiment [4], more than 100 µM; in [5], 37.5 µM; in [6], 26.2 µM; in experiment [7], more than 35.4 µM. Moreover, the TGI in [8] amounted to 8.9 µM; in experiment [9], 31.8 µM; in experiment [13], 38.1 µM; in [10], 26.3 µM; in [11], 32.4 µM; in experiment [12], 30.1 µM.
`CN(N)c1cc(=O)[nH]c(=O)[nH]1`: the TGI in [1], in experiment [2], in experiment [3], in experiment [4], in experiment [5] and in experiment [6] was more than 100 µM throughout. For the same compound, the TGI in experiment [7], in [8], in experiment [9], in experiment [10], in experiment [11] and in [12] was more than 100 µM in each case.
Take `Nc1cc(N2CCCC2)nc(=O)n1-c1ccccc1`: the TGI in [1], in [2], in experiment [3], in experiment [4], in experiment [5] and in experiment [6] was more than 100 µM throughout. For the same compound, the TGI in [7], in experiment [8], in experiment [9], in experiment [13], in experiment [11] and in [12] was more than 100 µM in each case.
For the compound `[O-][n+]1ccccc1S`, the TGI was more than 100 µM in experiment [2]; 4.09 µM in [3]; 20.3 µM in [5]; more than 100 µM in experiment [6]; 5.14 µM in experiment [8]; 4.4 µM in [9]. Besides, the TGI is more than 100 µM in experiment [13], more than 100 µM in experiment [10], 9.51 µM in experiment [11] and 23.1 µM in experiment [12]. Also, the GI50 in experiment [6] was 6.73 µM.
Take `O=S(=O)(O)c1ccc(N=Nc2c(O)ccc3cc(Br)ccc23)cc1`: the TGI in experiment [1], in experiment [2], in experiment [3], in [5], in [6] and in experiment [7] was more than 100 µM throughout. Also, the TGI in experiment [8], in experiment [9], in experiment [13], in experiment [10], in [11] and in [12] was more than 100 µM in each case.
As for `Cc1ncc2c(=O)c3c(oc2n1)c1ccccc1n3Cc1ccccc1`, the TGI in experiment [1], in experiment [2], in experiment [3], in experiment [4], in experiment [5] and in experiment [6] was more than 100 µM in each case. Also, the TGI in experiment [7], in experiment [8], in experiment [13], in [10], in [11] and in experiment [12] was more than 100 µM each time.
`N#Cc1c(N)[nH]c(=S)c(C#N)c1-c1ccccc1`: the TGI in [1], in [2], in experiment [3], in experiment [4], in experiment [5] and in experiment [6] was more than 100 µM in each case. Also, the TGI in experiment [7], in [8], in experiment [13], in experiment [10], in experiment [11] and in experiment [12] was more than 100 µM throughout.
On to `CNC(=O)N(CCC#N)CCCN(C(=O)NC)c1ccccc1`, for which the TGI in experiment [1], in experiment [2], in [3], in [4], in experiment [5] and in experiment [6] was more than 100 µM in each case. For the same compound, the TGI in experiment [7], in [8], in [9], in experiment [13], in experiment [11] and in experiment [12] was more than 100 µM each time.
With `Cc1oc2c(Cl)cc(O)c(Cl)c2c2cccc1-2`, the TGI in experiment [1] was 95.3 µM; in experiment [2], 54.6 µM; in [3] it was 75.4 µM; in experiment [4], 47.4 µM; in experiment [5] it was 47.4 µM; in [6], more than 100 µM. In addition, the TGI in experiment [8] is 83.3 µM; in experiment [9], 36.9 µM; in experiment [13], more than 100 µM; in experiment [10] it was more than 100 µM; in experiment [11] it was more than 100 µM; in experiment [12] it was more than 100 µM.
Regarding `O=c1[nH]nc(Cc2ccccc2)n1/N=C\c1ccccc1`, the TGI in experiment [1], in experiment [2], in experiment [3], in experiment [4], in [5] and in [6] was more than 100 µM throughout. Besides, the TGI in [7], in experiment [8], in experiment [9], in experiment [13], in [11] and in [12] was more than 100 µM each time.
